In patent publication US10004732B2 (Novartis AG, priority 2014, dated 2018):
Counter-ions that a name gives are not always drawn. Like-named read-outs stand apart in the source and are kept apart here.

Columns and labels:
PI 3-kinase alpha = PI 3-kinase alpha (Homo sapiens, UniProt P42336); test: Kinase Glo Luminescent Kinase Assay (Kglo), assay A; type: biochemical; conditions: read-out: Assay A PI3Kα IC50
PI 3-kinase beta = PI 3-kinase beta (Homo sapiens, UniProt P42338); test: Kinase Glo Luminescent Kinase Assay (Kglo), assay B; type: biochemical; conditions: read-out: Assay B PI3Kβ IC50
Vps34 = Vps34 (Homo sapiens, UniProt Q8NEB9); test: Kinase Glo Luminescent Kinase Assay (Kglo), assay C; type: biochemical; conditions: read-out: Assay C VPS34 IC50
PI 4-kinase beta = PI 4-kinase beta (Homo sapiens, UniProt Q9UBF8); test: Kinase Glo Luminescent Kinase Assay (Kglo), assay D; type: biochemical; conditions: read-out: Assay D PI4Kβ IC50
PI 3-kinase gamma = PI 3-kinase gamma (Homo sapiens, UniProt P48736); test: TR-FRET Adapta assay, assay E; type: biochemical; conditions: read-out: Assay E PI3Kγ IC50
mTOR = mTOR (Homo sapiens, UniProt P42345); test: Lanthascreen kinase binding assay, assay G; conditions: read-out: Assay G mTOR IC50
Method: Lanthascreen™ Kinase Binding Assay for mTOR (G)
Binding of an inhibitor to the kinase competes for binding with the tracer, resulting in a loss of FRET.
50 nL of compound dilutions were dispensed onto white 384-well small volume polystyrene plate.

PI 3-kinase delta = PI 3-kinase delta (Homo sapiens, UniProt O00329); test: TR-FRET Adapta assay, assay F
PI 3-kinase delta, sequence (O00329 whole entry): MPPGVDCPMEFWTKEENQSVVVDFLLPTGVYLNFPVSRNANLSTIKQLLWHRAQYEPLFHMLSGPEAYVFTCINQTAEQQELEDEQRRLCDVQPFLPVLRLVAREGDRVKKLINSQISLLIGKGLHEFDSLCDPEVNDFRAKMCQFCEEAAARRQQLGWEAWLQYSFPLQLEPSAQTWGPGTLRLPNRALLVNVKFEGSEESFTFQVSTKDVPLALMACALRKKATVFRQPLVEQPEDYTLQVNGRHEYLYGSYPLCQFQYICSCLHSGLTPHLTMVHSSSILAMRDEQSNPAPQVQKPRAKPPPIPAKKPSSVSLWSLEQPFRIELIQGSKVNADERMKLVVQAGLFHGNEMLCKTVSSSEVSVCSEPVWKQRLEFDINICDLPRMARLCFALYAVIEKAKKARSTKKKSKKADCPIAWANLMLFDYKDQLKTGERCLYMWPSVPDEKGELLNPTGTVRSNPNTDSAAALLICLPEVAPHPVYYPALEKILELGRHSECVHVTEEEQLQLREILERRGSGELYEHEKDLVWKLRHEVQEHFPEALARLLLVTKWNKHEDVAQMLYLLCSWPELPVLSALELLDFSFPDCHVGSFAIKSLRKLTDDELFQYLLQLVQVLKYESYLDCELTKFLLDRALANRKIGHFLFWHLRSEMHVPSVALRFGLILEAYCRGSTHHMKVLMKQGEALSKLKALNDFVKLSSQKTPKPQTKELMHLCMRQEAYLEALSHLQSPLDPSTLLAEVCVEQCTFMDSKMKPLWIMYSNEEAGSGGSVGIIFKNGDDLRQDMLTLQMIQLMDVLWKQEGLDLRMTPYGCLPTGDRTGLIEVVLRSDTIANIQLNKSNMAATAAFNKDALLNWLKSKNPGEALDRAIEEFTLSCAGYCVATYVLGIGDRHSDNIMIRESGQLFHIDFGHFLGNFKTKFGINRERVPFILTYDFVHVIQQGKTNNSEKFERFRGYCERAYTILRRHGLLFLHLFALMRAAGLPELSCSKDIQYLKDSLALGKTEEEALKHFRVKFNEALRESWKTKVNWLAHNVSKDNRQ
PI 3-kinase delta, sequence (P27986 461-568 partner): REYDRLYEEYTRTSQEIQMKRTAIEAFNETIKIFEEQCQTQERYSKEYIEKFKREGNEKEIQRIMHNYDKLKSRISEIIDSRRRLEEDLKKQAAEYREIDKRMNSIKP

PI 3-kinase gamma, sequence (P48736 whole entry): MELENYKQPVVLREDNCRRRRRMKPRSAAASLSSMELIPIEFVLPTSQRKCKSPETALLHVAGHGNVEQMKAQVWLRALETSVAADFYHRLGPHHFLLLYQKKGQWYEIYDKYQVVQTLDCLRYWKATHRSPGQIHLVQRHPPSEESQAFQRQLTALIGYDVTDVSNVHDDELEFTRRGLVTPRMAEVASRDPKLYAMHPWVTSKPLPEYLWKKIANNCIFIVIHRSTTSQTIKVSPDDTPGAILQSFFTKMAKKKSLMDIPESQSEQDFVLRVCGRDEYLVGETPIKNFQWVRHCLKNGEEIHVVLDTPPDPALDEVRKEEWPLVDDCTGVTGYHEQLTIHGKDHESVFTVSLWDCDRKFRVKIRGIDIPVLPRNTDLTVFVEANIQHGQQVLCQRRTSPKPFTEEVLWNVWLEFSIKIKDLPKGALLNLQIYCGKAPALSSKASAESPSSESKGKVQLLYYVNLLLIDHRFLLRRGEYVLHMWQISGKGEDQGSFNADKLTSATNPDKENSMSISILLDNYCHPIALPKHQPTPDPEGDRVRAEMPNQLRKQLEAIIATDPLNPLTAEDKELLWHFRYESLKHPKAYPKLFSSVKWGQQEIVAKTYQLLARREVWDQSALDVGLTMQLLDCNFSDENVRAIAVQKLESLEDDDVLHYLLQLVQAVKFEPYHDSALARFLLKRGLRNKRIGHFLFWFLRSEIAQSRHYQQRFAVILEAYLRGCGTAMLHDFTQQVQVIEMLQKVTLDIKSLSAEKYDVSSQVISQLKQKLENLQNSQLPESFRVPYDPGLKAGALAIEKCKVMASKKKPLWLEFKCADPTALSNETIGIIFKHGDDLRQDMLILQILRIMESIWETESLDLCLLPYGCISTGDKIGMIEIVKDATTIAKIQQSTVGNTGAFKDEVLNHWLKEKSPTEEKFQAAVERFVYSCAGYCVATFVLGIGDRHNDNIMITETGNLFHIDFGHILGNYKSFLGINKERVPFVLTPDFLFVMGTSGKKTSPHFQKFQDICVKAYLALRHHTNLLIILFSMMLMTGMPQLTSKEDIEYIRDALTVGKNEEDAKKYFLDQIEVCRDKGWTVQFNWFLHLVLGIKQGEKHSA
PI 3-kinase alpha, sequence (P42336 whole entry): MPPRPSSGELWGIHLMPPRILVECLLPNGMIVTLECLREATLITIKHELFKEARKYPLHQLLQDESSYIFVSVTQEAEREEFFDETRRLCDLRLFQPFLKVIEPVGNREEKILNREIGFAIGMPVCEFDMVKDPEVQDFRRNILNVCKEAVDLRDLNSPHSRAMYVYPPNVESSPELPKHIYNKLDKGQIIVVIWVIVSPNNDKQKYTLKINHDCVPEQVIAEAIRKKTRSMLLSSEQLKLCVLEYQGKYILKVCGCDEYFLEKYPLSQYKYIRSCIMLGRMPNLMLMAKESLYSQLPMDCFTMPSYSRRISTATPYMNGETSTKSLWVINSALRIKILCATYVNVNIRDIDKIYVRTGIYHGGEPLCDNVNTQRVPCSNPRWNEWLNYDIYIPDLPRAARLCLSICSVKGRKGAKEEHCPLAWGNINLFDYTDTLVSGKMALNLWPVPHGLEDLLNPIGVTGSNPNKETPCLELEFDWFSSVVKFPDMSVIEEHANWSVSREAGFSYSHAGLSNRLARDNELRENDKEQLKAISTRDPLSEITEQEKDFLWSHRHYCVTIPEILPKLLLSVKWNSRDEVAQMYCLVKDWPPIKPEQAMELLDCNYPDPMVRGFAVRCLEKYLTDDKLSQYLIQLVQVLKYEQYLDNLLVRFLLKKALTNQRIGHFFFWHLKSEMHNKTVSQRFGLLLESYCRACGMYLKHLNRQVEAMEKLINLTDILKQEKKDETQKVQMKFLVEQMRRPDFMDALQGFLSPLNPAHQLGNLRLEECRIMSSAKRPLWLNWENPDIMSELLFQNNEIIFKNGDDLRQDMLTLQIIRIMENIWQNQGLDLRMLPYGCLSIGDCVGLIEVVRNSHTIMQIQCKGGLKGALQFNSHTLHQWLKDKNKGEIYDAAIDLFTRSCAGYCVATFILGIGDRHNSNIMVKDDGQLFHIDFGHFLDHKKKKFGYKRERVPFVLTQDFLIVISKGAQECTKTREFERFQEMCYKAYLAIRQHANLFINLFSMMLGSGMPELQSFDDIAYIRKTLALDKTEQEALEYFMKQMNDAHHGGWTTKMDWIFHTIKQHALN
PI 3-kinase beta, sequence (P42338 whole entry): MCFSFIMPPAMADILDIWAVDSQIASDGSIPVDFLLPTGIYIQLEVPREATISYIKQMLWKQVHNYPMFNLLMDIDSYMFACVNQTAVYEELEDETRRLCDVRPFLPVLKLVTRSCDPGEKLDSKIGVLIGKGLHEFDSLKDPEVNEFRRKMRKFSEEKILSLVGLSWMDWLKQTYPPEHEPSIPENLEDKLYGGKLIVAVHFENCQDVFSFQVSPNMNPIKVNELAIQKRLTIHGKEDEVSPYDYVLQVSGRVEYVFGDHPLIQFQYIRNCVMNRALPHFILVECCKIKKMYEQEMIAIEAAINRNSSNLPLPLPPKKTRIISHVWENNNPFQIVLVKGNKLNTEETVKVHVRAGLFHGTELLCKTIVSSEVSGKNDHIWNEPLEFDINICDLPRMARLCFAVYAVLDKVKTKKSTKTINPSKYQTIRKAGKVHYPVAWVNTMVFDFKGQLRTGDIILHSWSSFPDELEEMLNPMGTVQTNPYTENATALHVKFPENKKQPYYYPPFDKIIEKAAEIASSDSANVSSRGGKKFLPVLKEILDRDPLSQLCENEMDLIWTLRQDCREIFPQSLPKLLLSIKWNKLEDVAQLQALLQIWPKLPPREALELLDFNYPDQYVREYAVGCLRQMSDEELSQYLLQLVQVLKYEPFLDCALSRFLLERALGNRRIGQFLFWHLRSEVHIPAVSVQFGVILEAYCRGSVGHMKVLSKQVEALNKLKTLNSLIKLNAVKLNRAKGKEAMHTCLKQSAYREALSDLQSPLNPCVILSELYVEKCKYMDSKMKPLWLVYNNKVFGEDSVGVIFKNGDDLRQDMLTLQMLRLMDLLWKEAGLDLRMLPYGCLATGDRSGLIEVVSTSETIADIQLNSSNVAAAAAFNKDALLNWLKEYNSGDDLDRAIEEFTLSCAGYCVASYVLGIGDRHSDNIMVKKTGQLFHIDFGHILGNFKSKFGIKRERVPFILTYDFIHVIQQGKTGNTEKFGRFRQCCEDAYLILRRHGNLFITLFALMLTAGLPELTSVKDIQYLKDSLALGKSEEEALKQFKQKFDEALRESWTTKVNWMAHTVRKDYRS
PI 3-kinase beta, sequence (P27986 461-568 partner): as the sequence (P27986 461-568 partner) above

Compound	IC50 (PI 3-kinase alpha)	IC50 (PI 3-kinase beta)	IC50 (Vps34)	IC50 (PI 4-kinase beta)	IC50 (PI 3-kinase gamma)	IC50 (mTOR)	IC50 (PI 3-kinase delta; read-out: Assay F PI3Kδ IC50)	IC50 (PI 3-kinase delta)
Cc1ccc(S(=O)(=O)NCCCCCO)cc1-c1cnc(N)c(-n2cncn2)n1 [Example 127.9]	2300 nM	> 10000 nM	> 10000 nM	> 10000 nM	1600 nM	> 10000 nM	3000 nM	
Cc1ccc(S(=O)(=O)NCCC(C)(C)O)cc1-c1cnc(N)c(-c2ccnc(F)c2)n1 [Example 119.10]	120 nM	6470 nM	> 9100 nM	> 9100 nM	30 nM	6400 nM	100 nM	
Cc1ncc(-c2nc(-c3cc(S(=O)(=O)NCCC(C)(C)O)ccc3C)cnc2N)o1 [Example 119.40]	150 nM	3500 nM	> 10000 nM	6200 nM	23 nM	> 10000 nM	180 nM	
Cc1ccc(S(=O)(=O)NCC2CCN(C)C2)cc1-c1cnc(N)c(-n2cncn2)n1 (stereo not shown) [Example 127.18]	1900 nM	2400 nM	> 10000 nM	> 10000 nM	1300 nM	> 10000 nM	380 nM	
Cc1cc(-c2nc(-c3cc(S(=O)(=O)NCC(C)(C)O)ccc3C)cnc2N)on1 [Example 88, 3-(5-Amino-6-(3-methylisoxazol-5-yl)pyrazin-2-yl)-N-(2-hydroxy-2-methylpropyl)-4-methylbenzenesulfonamide]		2200 nM		6100 nM			1100 nM	
Cc1ccc(S(=O)(=O)NCC2(O)CCCCC2)cc1-c1cnc(N)c(-n2cncn2)n1 [Example 127.11]	980 nM	1300 nM	> 10000 nM	> 10000 nM	270 nM	> 10000 nM	760 nM	
Cc1ccc(S(=O)(=O)N[C@@H](C)CO)cc1-c1cnc(N)c(-n2cncn2)n1 [Example 127.41]	1700 nM	3500 nM	> 10000 nM	4200 nM	270 nM	> 10000 nM	6600 nM	
Cc1ncc(-c2nc(-c3cc(S(=O)(=O)NCCO)ccc3C)cnc2N)s1 [Example 45, 3-(5-Amino-6-(2-methylthiazol-5-yl)pyrazin-2-yl)-N-(2-hydroxyethyl)-4-methylbenzenesulfonamide]		530 nM	1100 nM	1600 nM			230 nM	
Cc1ccc(S(=O)(=O)NC[C@@H]2CCC(C)(C)O2)cc1-c1cnc(N)c(-n2cncn2)n1 [Example 127.40]	770 nM	1500 nM	> 10000 nM	7600 nM	140 nM	> 10000 nM		1400 nM
Cc1ccc(S(=O)(=O)N[C@@H]2CNC[C@H]2O)cc1-c1cnc(N)c(-n2cncn2)n1 [Example 127.60, 3-(5-amino-6-(1H-1,2,4-triazol-1-yl)pyrazin-2-yl)-N-((3R,4R)-4-hydroxypyrrolidin-3-yl)-4-methylbenzenesulfonamide trifluoroacetic acid salt]	960 nM	730 nM	> 10000 nM	3300 nM	140 nM	> 10000 nM		2400 nM
Cc1ccc(S(=O)(=O)NCC(C)(C)O)cc1-c1cnc(N)c(-c2cn(C)nc2C)n1 [Example 13]		1090 nM	> 10000 nM	6500 nM		> 10000 nM		
Cc1ccc(S(=O)(=O)NC(C)C(C)C)cc1-c1cnc(N)c(-n2cncn2)n1 (stereo not shown) [Example 127.44]	730 nM	2200 nM	> 10000 nM	6100 nM	120 nM	3700 nM	1400 nM	
Cc1ccc(S(=O)(=O)NCC(C)(C)CO)cc1-c1cnc(N)c(-c2nc(C3CC3)no2)n1 [Example 93, 3-(5-Amino-6-(3-cyclopropyl-1,2,4-oxadiazol-5-yl)pyrazin-2-yl)-N-(3-hydroxy-2,2-dimethylpropyl)-4-methylbenzenesulfonamide]			> 9100 nM	> 9100 nM		> 9100 nM		
Cc1ncc(-c2nc(-c3cc(S(=O)(=O)NCC4COCCN4C)ccc3C)cnc2N)s1 (stereo not shown) [Example 45.12, 3-(5-Amino-6-(2-methylthiazol-5-yl)pyrazin-2-yl)-4-methyl-N-((4-methylmorpholin-3-yl)methyl)benzenesulfonamide]	50 nM	390 nM	2600 nM	1400 nM	15 nM		100 nM	

Now from value to compound:

IC50 (PI 3-kinase alpha)	IC50 (PI 3-kinase beta)	IC50 (Vps34)	IC50 (PI 4-kinase beta)	IC50 (PI 3-kinase gamma)	IC50 (mTOR)	IC50 (PI 3-kinase delta; read-out: Assay F PI3Kδ IC50)	IC50 (PI 3-kinase delta)	Compound
740 nM	> 9100 nM	> 9100 nM	> 9100 nM	270 nM	> 9100 nM	2800 nM		CC[C@@H](CO)NS(=O)(=O)c1ccc(C)c(-c2cnc(N)c(-c3ccnc(C)c3)n2)c1 [Example 129.6, (S)-3-(5-amino-6-(2-methylpyridin-4-yl)pyrazin-2-yl)-N-(1-hydroxybutan-2-yl)-4-methylbenzenesulfonamide]
320 nM	8500 nM	> 9100 nM	> 9100 nM	110 nM	> 9100 nM	290 nM		Cc1cc(-c2nc(-c3cc(S(=O)(=O)NC[C@@](C)(O)C(F)(F)F)ccc3C)cnc2N)ccn1 [Example 129.20, (R)-3-(5-amino-6-(2-methylpyridin-4-yl)pyrazin-2-yl)-4-methyl-N-(3,3,3-trifluoro-2-hydroxy-2-methylpropyl)benzenesulfonamide]
900 nM	> 9100 nM	> 9100 nM	> 9100 nM	270 nM	7800 nM	3300 nM		CC[C@H](CO)NS(=O)(=O)c1ccc(C)c(-c2cnc(N)c(-c3ccnc(C)c3)n2)c1 [Example 129.7, (R)-3-(5-amino-6-(2-methylpyridin-4-yl)pyrazin-2-yl)-N-(1-hydroxybutan-2-yl)-4-methylbenzenesulfonamide]
2300 nM	> 9100 nM	> 9100 nM	> 9100 nM	260 nM	> 9100 nM	2000 nM		CNCCNS(=O)(=O)c1ccc(C)c(-c2cnc(N)c(-c3ccnc(C)c3)n2)c1 [Example 129.33, 3-(5-amino-6-(2-methylpyridin-4-yl)pyrazin-2-yl)-4-methyl-N-(2-(methylamino)ethyl)benzenesulfonamide]
1600 nM	2700 nM	> 9100 nM	> 9100 nM	820 nM	> 9100 nM		4500 nM	Cc1cc(-c2nc(-c3cc(S(=O)(=O)N[C@H]4CCC[C@@H]4N)ccc3C)cnc2N)ccn1 [Example 129.38, 3-(5-amino-6-(2-methylpyridin-4-yl)pyrazin-2-yl)-N-((1S,2S)-2-aminocyclopentyl)-4-methylbenzenesulfonamide]
290 nM	1800 nM	> 9100 nM	6700 nM	120 nM	> 9100 nM	800 nM		Cc1cc(-c2nc(-c3cc(S(=O)(=O)NCC4(C(N)=O)CCOCC4)ccc3C)cnc2N)ccn1 [Example 129.31, 4-((3-(5-amino-6-(2-methylpyridin-4-yl)pyrazin-2-yl)-4-methylphenylsulfonamido)methyl)tetrahydro-2H-pyran-4-carboxamide]
2000 nM	6600 nM	> 9100 nM	> 9100 nM	150 nM	> 9100 nM	1700 nM		Cc1cc(-c2nc(-c3cc(S(=O)(=O)NC[C@H]4CCC[C@@H](CN)C4)ccc3C)cnc2N)ccn1 [Example 129.42, 3-(5-amino-6-(2-methylpyridin-4-yl)pyrazin-2-yl)-N-(((1S,3R)-3-(aminomethyl)cyclohexyl)methyl)-4-methylbenzenesulfonamide]
630 nM	> 9100 nM	> 9100 nM	> 9100 nM	66 nM	> 9100 nM	2000 nM		Cc1cc(-c2nc(-c3cc(S(=O)(=O)NCC4CCCCO4)ccc3C)cnc2N)ccn1 (stereo not shown) [Example 129.16, 3-(5-amino-6-(2-methylpyridin-4-yl)pyrazin-2-yl)-4-methyl-N-((tetrahydro-2H-pyran-2-yl)methyl)benzenesulfonamide]
2800 nM	3300 nM	> 9100 nM	> 9100 nM	380 nM	> 9100 nM	1900 nM		CCN(CC)CCCNS(=O)(=O)c1ccc(C)c(-c2cnc(N)c(-c3ccnc(C)c3)n2)c1 [Example 129.23, 3-(5-amino-6-(2-methylpyridin-4-yl)pyrazin-2-yl)-N-(3-(diethylamino)propyl)-4-methylbenzenesulfonamide]
1300 nM	> 9100 nM	> 9100 nM	8300 nM	540 nM	> 9100 nM	2800 nM		Cc1cc(-c2nc(-c3cc(S(=O)(=O)N4CC5(CNC5)C4)ccc3C)cnc2N)ccn1 [Example 129.37, 5-(5-(2,6-diazaspiro[3.3]heptan-2-ylsulfonyl)-2-methylphenyl)-3-(2-methylpyridin-4-yl)pyrazin-2-amine]
9000 nM	> 9100 nM	> 9100 nM	> 9100 nM	760 nM	> 9100 nM	2100 nM		Cc1cc(-c2nc(-c3cc(S(=O)(=O)NCCN4CCCC4)ccc3C)cnc2N)ccn1 [Example 129.27, 3-(5-amino-6-(2-methylpyridin-4-yl)pyrazin-2-yl)-4-methyl-N-(2-(pyrrolidin-1-yl)ethyl)benzenesulfonamide]
